Measured values published in patent US11034692B1 (Genentech, Inc., priority 2017, dated 2021).

Biological target: HPK1
Assay: HPK1 Lantha Binding Assay ("Lanth")
Conditions: Table B1-1, read-out: HPK1 Ki (μM) (Lanth)
Method in brief: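 Compounds in an 11-point 5-fold series were preincubated 1 h at 23 C with 2 nM kinase plus 2 nM Eu-anti-GST antibody. Then 15 nM Tracer222 was added for another hour, and time-resolved FRET was read at 665/615 nm. Ki values come from a Morrison tight-binding model that uses the tracer Kd.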

Ki [nM]	Structure (SMILES)
0.569	Cc1ccncc1-c1cc2cc(Nc3cnn([C@H]4CCCN(C)C4=O)c3)ncc2c(N)n1 [Compound 252, (3S)-3-(4-[[8-amino-6-(4-methylpyridin-3-yl)-2,7-naphthyridin-3-yl]amino]-1H-pyrazol-1-yl)-1-methylpiperidin-2-one]
4.55	Nc1nc(-c2cnccc2CCO)cc2cc(NC(=O)[C@H]3C[C@@H]3c3cccnc3)ncc12 [Compound 254, (1S,2S)—N-[8-amino-6-[4-(2-hydroxyethyl)pyridin-3-yl]-2,7-naphthyridin-3-yl]-2-(pyridin-3-yl)cyclopropane-1-carboxamide]
33.9	Cc1ccncc1-c1cc2cc(NC(=O)[C@H]3[C@@H]4CN(C5COC5)C[C@@H]43)ncc2c(N)n1 [Compound 255, (exo)-N-[8-amino-6-(4-methylpyridin-3-yl)-2,7-naphthyridin-3-yl]-3-(oxetan-3-yl)-3-azabicyclo[3.1.0]hexane-6-carboxamide]
1.01	Cc1ccncc1-c1cc2cc(Nc3cnn(CC(F)F)c3)ncc2c(N)n1 [Compound 257, 6-N-[1-(2,2-difluoroethyl)-1H-pyrazol-4-yl]-3-(4-methylpyridin-3-yl)-2,7-naphthyridine-1,6-diamine]
0.695	Cc1ccncc1-c1nc(N)c2cnc(NC(=O)C3CC3)cc2c1-c1cn[nH]c1 [Compound 258, N-(8-amino-6-(4-methylpyridin-3-yl)-5-(1H-pyrazol-4-yl)-2,7-naphthyridin-3-yl)cyclopropanecarboxamide]
146	Cc1ccncc1-c1cc2cc(Nc3cc(C4CC4)n(CCO)n3)ncc2c(N)n1 [Compound 259, 2-(3-[[8-amino-6-(4-methylpyridin-3-yl)-2,7-naphthyridin-3-yl]amino]-5-cyclopropyl-1H-pyrazol-1-yl)ethan-1-ol]
0.134	Cc1ccncc1-c1cc2cc(Nc3ccc(CS(N)(=O)=O)cc3)ncc2c(N)n1 [Compound 264, (4-[[8-Amino-6-(4-methylpyridin-3-yl)-2,7-naphthyridin-3-yl]amino]phenyl)methanesulfonamide]
0.116	Cc1ccncc1-c1nc(N)c2cnc(NC(=O)[C@H]3C[C@@H]3CC#N)cc2c1Cl [Compound 270, (1S,2R)—N-[8-amino-5-chloro-6-(4-methylpyridin-3-yl)-2,7-naphthyridin-3-yl]-2-(cyanomethyl)cyclopropane-1-carboxamide]
0.139	CCc1c(-c2cnccc2C)nc(N)c2cnc(NC(=O)[C@@H]3C[C@H]3CC#N)cc12 [Compound 272, (1R,2S)—N-[8-amino-5-ethyl-6-(4-methylpyridin-3-yl)-2,7-naphthyridin-3-yl]-2-(cyanomethyl)cyclopropane-1-carboxamide]
0.297	Cc1ccncc1-c1cc2cc(Nc3cnn([C@@H](C)C#N)c3)ncc2c(N)n1 [Compound 274, (S)-2-(4-(8-amino-6-(4-methylpyridin-3-yl)-2,7-naphthyridin-3-ylamino)-1H-pyrazol-1-yl)propanenitrile]
1.82	Cc1ccc(O)cc1-c1cc2cc(NC(=O)[C@H]3C[C@@H]3c3cnn(C)c3)ncc2c(N)n1 [Compound 286, (1S,2S)—N-[8-amino-6-(5-hydroxy-2-methylphenyl)-2,7-naphthyridin-3-yl]-2-(1-methyl-1H-pyrazol-4-yl)cyclopropane-1-carboxamide]
0.078	Cc1ccc(O)cc1-c1cc2cc(NC(=O)[C@@H]3C[C@H]3c3cnn(C)c3)ncc2c(N)n1 [Compound 287, (1R,2R)—N-[8-amino-6-(5-hydroxy-2-methylphenyl)-2,7-naphthyridin-3-yl]-2-(1-methyl-1H-pyrazol-4-yl)cyclopropane-1-carboxamide]
6.19	COc1ccc(C)c(-c2cc3cc(NC(=O)[C@H]4C[C@@H]4c4cnn(C)c4)ncc3c(N)n2)c1 [Compound 288, (1S,2S)—N-[8-amino-6-(5-methoxy-2-methylphenyl)-2,7-naphthyridin-3-yl]-2-(1-methyl-1H-pyrazol-4-yl)cyclopropane-1-carboxamide]
7.39	COc1ccc(C)c(-c2cc3cc(NC(=O)C4C[C@H]4c4cnn(C)c4)ncc3c(N)n2)c1 (stereo partly drawn) [Compound 289, (1R,2R)—N-[8-amino-6-(5-methoxy-2-methylphenyl)-2,7-naphthyridin-3-yl]-2-(1-methyl-H-pyrazol-4-yl)cyclopropane-1-carboxamide]

Second part, the molecule before the results:

Structure (SMILES)	Ki [nM]
Nc1nc(-c2cnccc2CCO)cc2cc(NC(=O)[C@@H]3C[C@H]3c3cccnc3)ncc12 [Compound 253, (1R,2R)—N-[8-amino-6-[4-(2-hydroxyethyl)pyridin-3-yl]-2,7-naphthyridin-3-yl]-2-(pyridin-3-yl)cyclopropane-1-carboxamide]	0.0892
Cc1ccncc1-c1cc2cc(Nc3cnn(CC(C)(C)O)c3)ncc2c(N)n1 [Compound 260, 1-(4-[[8-amino-6-(4-methylpyridin-3-yl)-2,7-naphthyridin-3-yl]amino]-1H-pyrazol-1-yl)-2-methylpropan-2-ol]	0.73
Cc1cc(Nc2cc3cc(-c4cnccc4C)nc(N)c3cn2)n(CCO)n1 [Compound 261, 2-(5-[[8-amino-6-(4-methylpyridin-3-yl)-2,7-naphthyridin-3-yl]amino]-3-methyl-1H-pyrazol-1-yl)ethan-1-ol]	36.7
CNC(=O)c1cc(Nc2cc3cc(-c4cnccc4C)nc(N)c3cn2)nn1C [Compound 263, 3-[[8-Amino-6-(4-methylpyridin-3-yl)-2,7-naphthyridin-3-yl]amino]-N,1-dimethyl-1H-pyrazole-5-carboxamide]	0.021
Cc1ccncc1-c1cc2cc(Nc3ccc(N4CCNCC4=O)cc3)ncc2c(N)n1 [Compound 265, 1-(4-[[8-amino-6-(4-methylpyridin-3-yl)-2,7-naphthyridin-3-yl]amino]phenyl)piperazin-2-one]	0.249
Cc1ccncc1-c1cc2cc(Nc3cnn(C(C)(C)CO)c3)ncc2c(N)n1 [Compound 266, 2-(4-[[8-amino-6-(4-methylpyridin-3-yl)-2,7-naphthyridin-3-yl]amino]-1H-pyrazol-1-yl)-2-methylpropan-1-ol]	0.118
Cc1ccncc1-c1nc(N)c2cnc(NC(=O)[C@@H]3C[C@H]3CC#N)cc2c1Cl [Compound 269, (1R,2S)—N-[8-amino-5-chloro-6-(4-methylpyridin-3-yl)-2,7-naphthyridin-3-yl]-2-(cyanomethyl)cyclopropane-1-carboxamide]	2.3
Cc1ccc(C(=O)N(C)C)cc1-c1cc2cc(NC(=O)[C@H]3C[C@@H]3c3cnn(C)c3)ncc2c(N)n1 [Compound 290, 3-(1-amino-6-[[(1S,2S)-2-(1-methyl-1H-pyrazol-4-yl)cyclopropane]amido]-2,7-naphthyridin-3-yl)-N,N,4-trimethylbenzamide]	3.36
Cc1ccc(C(=O)N(C)C)cc1-c1cc2cc(NC(=O)[C@@H]3C[C@H]3c3cnn(C)c3)ncc2c(N)n1 [Compound 291, 3-(1-amino-6-[[(1R,2R)-2-(1-methyl-1H-pyrazol-4-yl)cyclopropane]amido]-2,7-naphthyridin-3-yl)-N,N,4-trimethylbenzamide]	63.8
Cc1ccncc1-c1cc2cc(NC(=O)[C@H]3C[C@@H]3c3cnn(CCOCCN)c3)ncc2c(N)n1 [Compound 292, (1S,2S)—N-[8-amino-6-(4-methylpyridin-3-yl)-2,7-naphthyridin-3-yl]-2-[1-[2-(2-aminoethoxy)ethyl]-1H-pyrazol-4-yl]cyclopropane-1-carboxamide]	0.0417
